Data on 22 molecules can be found in patent US20260272924A1, “ISOINDOLINE DERIVATIVE, BENZOINDOLE DERIVATIVE AND USE THEREOF” (SHANGHAI HELIOSON PHARMACEUTICAL CO., LTD., priority 2023, published 2026).

The subject of the assay is NCI-H929 multiple myeloma cells. The assay can be described thus: Cell Titer-GLO (CTG) assay for proliferation of NCI-H929 cells. It counts as cell-based. The conditions noted are these: Homo sapiens, 72 hours. Here is the method:
1. Experimental objective: To determine inhibitory activities of compounds on NCI-H929 multiple myeloma cells.
NCI-H929 cells, purchased from Nanjing Cobioer Biotechnology Co., Ltd, were cultured in RPM11640 (Viva; C3010-0500) medium containing 10% fetal bovine serum (Viva, C04002-500) and 1% of penicillin-streptomycin at 37° C. with 5% of C02 and saturated humidity conditions.
The cells in logarithmic growth phase were plated at 5000 cells per well of a 96-well plate and after overnight incubation, compounds at 0.00512 nM, 0.0256 nM, 0.128 nM, 0.64 nM, 3.2 nM, 16 nM, 80 nM, and 400 nM were dosed into the plate with each dose in 2 duplicate wells. Cells were incubated at 37° C., 5% CO2 for 72 hours. After the incubation, the plate was placed at room temperature for half an hour, and then 50 μL of Cell Titer-Glo® (Promega, G7573) was added. The plate was placed on a shaker for uniform mixing for 2 minutes and was placed in the dark at room temperature for 10 minutes. The luminance signal was measured using SpectraMax Paradigm (Molecular Devices).
Cell activity inhibition rate (%)=1 00−(RLUcompound−RLUblank)/(RLUcontrol−RLUblank)×100%, where control refers to the 0.1% DMSO treatment group, and blank refers to the culture medium control. IC50 values and maximum inhibition rates of the compounds were calculated using a nonlinear regression function “Dose-Response-Inhibition” in Graphpad Prism 7.0.
Turning to `O=C1CC[C@H](N2Cc3c(OCc4ccc(CN5CCN([C@H]6CC[C@H](NC(=O)c7cccc(-n8ccnc8)n7)CC6)CC5)cc4)cccc3C2=O)C(=O)N1` [Example 16, N-((1R,4R)-4-(4-(4-(((2-((S)-2,6-dioxopiperidin-3-yl)-1-oxoisoindolin-4-yl)oxy)methyl)benzyl)piperazin-1-yl)cyclohexyl)-6-(1H-imidazol-1-yl)pyridin-2-carboxamide], the 50% inhibitory concentration (IC50) (commonly the concentration that inhibits the measured activity by half) is 0.05 nM.

For `Cc1ncn(-c2cccc(N3CCN(C4CN(Cc5ccc(Cc6ccc7c8c(cccc68)C(=O)N7C6CCC(=O)NC6=O)cc5)C4)CC3)n2)n1` (stereo not shown) [Example 53, 3-(6-(4-((3-(4-(6-(3-methyl-1H-1,2,4-triazol-1-yl)pyridin-2-yl)piperazin-1-yl)azetidin-1-yl)methyl)benzyl)-2-oxobenzo[cd]indol-1(2H)-yl)piperidin-2,6-dione], the concentration for half-maximal inhibition (IC50) amounted to 0.003 nM.

For the molecule `Cc1ncn(-c2nc(N3CCN(Cc4ccc(Cc5ccc6c7c(cccc57)C(=O)N6C5CCC(=O)NC5=O)cc4)CC3)cc(C(F)(F)F)n2)n1` (stereo not shown) [Example 69, 3-(6-(4-((4-(2-(3-methyl-1H-1,2,4-triazol-1-yl)-6-(trifluoromethyl)pyrimidin-4-yl)piperazin-1-yl)methyl)benzyl)-2-oxobenzo[cd]indol-1(2H)-yl)piperidin-2,6-dione], half-maximal inhibition (IC50) was put at 0.04 nM.

For `O=C1CCC(N2C(=O)c3cccc4c(Cc5ccc(CN6CCN(c7ccnc(-n8cnc(C9CC9)c8)n7)CC6)cc5)ccc2c34)C(=O)N1` (stereo not shown) [Example 26, 3-(6-(4-((4-(2-(4-cyclopropvl-1H-imidazol-1-yl)pyrimidin-4-yl)piperazin-1-yl)methyl)benzyl)-2-oxobenzo[cd]indol-1(2H)-yl)piperidin-2,6-dione], half-maximal inhibition (IC50) was put at 0.06 nM.

As to `Cc1nc(N2CCN(Cc3ccc(Cc4ccc5c6c(cccc46)C(=O)N5C4CCC(=O)NC4=O)cc3)CC2)cc(-n2cnc(C(F)(F)F)n2)n1` (stereo not shown) [Example 70, 3-(6-(4-((4-(2-methyl-6-(3-(trifluoromethyl)-1H-1,2,4-triazol-1-yl)pyrimidin-4-yl)piperazin-1-yl)methyl)benzyl)-2-oxobenzo[cd]indol-1(2H)-yl)piperidin-2,6-dione], it took 0.1 nM to reach half-maximal inhibition (IC50).

Molecule `N#Cc1cn(-c2nccc(N3CCN(Cc4ccc(Cc5ccc6c7c(cccc57)C(=O)N6C5CCC(=O)NC5=O)cc4)CC3)n2)cn1` (stereo not shown) [Example 44, 3-(6-(4-((4-(2-(4-cvano-1H-imidazol-1-yl)pyrimidin-4-yl)piperazin-1-yl)methyl)benzyl)-2-oxobenzo[cd]indol-1(2H)-yl)piperidin-2,6-dione] returned a half-maximal inhibitory concentration (IC50) of 0.01 nM.

For `O=C1CCC(N2C(=O)c3cccc4c(Cc5ccc(CN6CC(N7CCN(c8cccc(-n9ccnc9)n8)CC7)C6)cc5)ccc2c34)C(=O)N1` (stereo not shown) [Example 32], the IC50 is < 0.005 nM.

`Cc1nc(N2CCN(C3CN(Cc4ccc(COc5cccc6c5CN([C@H]5CCC(=O)NC5=O)C6=O)cc4)C3)CC2)cc(-n2cnc(C(F)(F)F)c2)n1` [Example 78, (S)-3-(4-((4-((3-(4-(2-methyl-6-(4-(trifluoromethyl)-1H-imidazol-1-yl)pyrimidin-4-yl)piperazin-1-yl)azetidin-1-yl)methyl)benzyl)oxy)-1-oxoisoindolin-2-yl)piperidin-2,6-dione] yielded an IC50 of 0.1 nM.

On to `O=C1CCC(N2C(=O)c3cccc4c(Cc5ccc(CN6CCN(c7cc(C(F)(F)F)nc(-n8cnc(C(F)(F)F)c8)n7)CC6)cc5)ccc2c34)C(=O)N1` (stereo not shown) [Example 56, 3-(2-oxo-6-(4-((4-(6-(trifluoromethyl)-2-(4-(trifluoromethyl)-1H-imidazol-1-yl)pyrimidin-4-yl)piperazin-1-yl)methyl)benzyl)benzo[cd]indol-1(2H)-yl)piperidin-2,6-dione], for which it took 0.1 nM to reach half-maximal inhibition (IC50).

`O=C1CCC(N2C(=O)c3cccc4c(Cc5ccc(CN6CCC(Nc7ccnc(-n8ccnc8)n7)CC6)cc5)ccc2c34)C(=O)N1` (stereo not shown) [Example 9, 3-(6-(4-((4-((2-(1H-imidazol-1-yl)pyrimidin-4-yl)amino)piperidin-1-yl)methyl)benzyl)-2-oxobenzo[cd]indol-1(2H)-yl)piperidin-2,6-dione] yielded an IC50 of 0.07 nM.

As to `O=C1CCC(N2C(=O)c3cccc4c(Cc5ccc(CN6CCN(c7cccc(-c8nnc(C(F)(F)F)s8)n7)CC6)cc5)ccc2c34)C(=O)N1` (stereo not shown) [Example 63, 3-(2-oxo-6-(4-((4-(6-(5-(trifluoromethyl)-1,3,4-thiadiazol-2-yl)pyridin-2-yl)piperazin-1-yl)methyl)benzyl)benzo[cd]indol-1(2H)-yl)piperidin-2,6-dione], half-maximal inhibition (IC50) required 0.2 nM.

`Cn1c(-c2nccc(N3CCN(Cc4ccc(Cc5ccc6c7c(cccc57)C(=O)N6C5CCC(=O)NC5=O)cc4)CC3)n2)cnc1C(F)(F)F` (stereo not shown) [Example 61, 3-(6-(4-((4-(2-(1-methyl-2-(trifluoromethyl)-1H-imidazol-5-yl)pyrimidin-4-yl)piperazin-1-yl)methyl)benzyl)-2-oxobenzo[cd]indol-1(2H)-yl)piperidin-2,6-dione] displayed an IC50 of 0.02 nM.

Take `Cc1nc(N2CCN(C3CN(Cc4ccc(Cc5ccc6c7c(cccc57)C(=O)N6C5CCC(=O)NC5=O)cc4)C3)CC2)cc(-n2cnc(C)n2)n1` (stereo not shown) [Example 48, 3-(6-(4-((3-(4-(2-methyl-6-(3-methyl-1H-1,2,4-triazol-1-yl)pyrimidin-4-yl)piperazin-1-yl)azetidin-1-yl)methyl)benzyl)-2-oxobenzo[cd]indol-1(2H)-yl)piperidin-2,6-dione]: the IC50 came to 0.002 nM.

In turn, `Cc1ncn(-c2ncc(F)c(N3CCN(Cc4ccc(Cc5ccc6c7c(cccc57)C(=O)N6C5CCC(=O)NC5=O)cc4)CC3)n2)n1` (stereo not shown) [Example 68, 3-(6-(4-((4-(5-fluoro-2-(3-methyl-1H-1,2,4-triazol-1-yl)pyrimidin-4-yl)piperazin-1-yl)methyl)benzyl)-2-oxobenzo[cd]indol-1(2H)-yl)piperidin-2,6-dione] gave an IC50 of 0.02 nM.

Molecule `Cc1ncc(-c2ncc(F)c(N3CCN(Cc4ccc(Cc5ccc6c7c(cccc57)C(=O)N6C5CCC(=O)NC5=O)cc4)CC3)n2)s1` (stereo not shown) [Example 67, 3-(6-(4-((4-(5-fluoro-2-(2-methylthiazol-5-yl)pyrimidin-4-yl)piperazin-1-yl)methyl)benzyl)-2-oxobenzo[cd]indol-1(2H)-yl)piperidin-2,6-dione] registered an IC50 of 0.07 nM.

In turn, `Cc1nnc(-c2cccc(N3CCN(Cc4ccc(Cc5ccc6c7c(cccc57)C(=O)N6[C@@H]5CCC(=O)NC5=O)cc4)CC3)n2)s1` [Example 36, (R)-3-(6-(4-((4-(6-(5-methyl-1,3,4-thiadiazol-2-yl)pyridin-2-yl)piperazin-1-yl)methyl)benzyl)-2-oxobenzo[cd]indol-1(2H)-yl)piperidin-2,6-dione] registered an IC50 of 0.02 nM.

For the molecule `Cc1ncn(-c2cccc(N3CCN(Cc4ccc(Cc5ccc6c7c(cccc57)C(=O)N6[C@@H]5CCC(=O)NC5=O)cc4)CC3)n2)n1` [Example 38, (R)-3-(6-(4-((4-(6-(3-methyl-1H-1,2,4-triazol-1-yl)pyridin-2-yl)piperazin-1-yl)methyl)benzyl)-2-oxobenzo[cd]indol-1(2H)-yl)piperidin-2,6-dione], the IC50 is 0.03 nM.

Molecule `Cc1nc(N2CCN(Cc3ccc(COc4cccc5c4CN([C@H]4CCC(=O)NC4=O)C5=O)cc3)CC2)cc(-n2cnc(C)n2)n1` [Example 71, (S)-3-(4-((4-((4-(2-methyl-6-(3-methyl-1H-1,2,4-triazol-1-yl)pyrimidin-4-yl)piperazin-1-yl)methyl)benzyl)oxy)-1-oxoisoindolin-2-yl)piperidin-2,6-dione] returned an IC50 of 0.1 nM.

Consider `Cc1nnc(-c2ncc(F)c(N3CCN(Cc4ccc(Cc5ccc6c7c(cccc57)C(=O)N6C5CCC(=O)NC5=O)cc4)CC3)n2)s1` (stereo not shown) [Example 42, 3-(6-(4-((4-(5-fluoro-2-(5-methyl-1,3,4-thiadiazol-2-yl)pyrimidin-4-yl)piperazin-1-yl)methyl)benzyl)-2-oxobenzo[cd]indol-1(2H)-yl)piperidin-2,6-dione], for which inhibition was half-maximal at 0.01 nM (IC50).

`Cc1nc(N2CCN(C3CN(Cc4ccc(COc5cccc6c5CN([C@H]5CCC(=O)NC5=O)C6=O)cc4)C3)CC2)cc(-n2cnc(C)n2)n1` [Example 77, (S)-3-(4-((4-((3-(4-(2-methyl-6-(3-methyl-1H-1,2,4-triazol-1-yl)pyrimidin-4-yl)piperazin-1-yl)azetidin-1-yl)methyl)benzyl)oxy)-1-oxoisoindolin-2-yl)piperidin-2,6-dione]: the IC50 was determined as 0.1 nM.

`Cc1nncn1-c1cccc(N2CCN(Cc3ccc(Cc4ccc5c6c(cccc46)C(=O)N5C4CCC(=O)NC4=O)cc3)CC2)n1` (stereo not shown) [Example 28, 3-(6-(4-((4-(6-(3-methyl-4H-1,2,4-triazol-4-yl)pyridin-2-yl)piperazin-1-yl)methyl)benzyl)-2-oxobenzo[cd]indol-1(2H)-yl)piperidin-2,6-dione] gave a concentration for half-maximal inhibition (IC50) of 0.03 nM.

For the molecule `Cc1ncn(-c2cccc(N3CCN(Cc4ccc(COc5cccc6c5CN([C@H]5CCC(=O)NC5=O)C6=O)cc4)CC3)n2)n1` [Example 66, (S)-3-(4-((4-((4-(6-(3-methyl-1H-1,2,4-triazol-1-yl)pyridin-2-Vl)piperazin-1-yl)methyl)benzyl)oxy)-1-oxoisoindolin-2-yl)piperidin-2,6-dione], the midpoint of inhibition, the IC50, lay at 0.1 nM.
